In patent US20260325580A1, “CYTOTOXICITY TARGETING CHIMERAS FOR CAR-T AND CAR-NK CELLS” (GLAXOSMITHKLINE INTELLECTUAL PROPERTY DEVELOPMENT LIMITED, priority 2023, published 2026):
Read-outs that look alike come from different tables or passages of the source. Values belong to the compound of their own block, whether it stands above or below them.

Legend:
Assay type in all cases: cell-based
[1] = tested on: PSMA-expressing target cells; assay: In vitro cell killing, Method 1: CellTiter-Glo luminescent cell viability assay, PSMA-expressing target cells; settings: 24 hours, EC50 in molar (M)
Protocol: (§1) In vitro cell killing of antigen expressing target cells in the presence of anti-cotinine CAR-T or CAR-NK cells and antigen matched CyTaCs was evaluated by three different methods: Cell Titler Glo assay (method 1); Real-Time Cell Analysis (RTCA) Impedance Assay (method 2); and live cell analysis assay (method 3), as described below.
(§2) A luminescent assay was performed to quantify the number of viable cells remaining following co-incubation of antigen-expressing adherent target cells, anti-cotinine CAR-T cells, and antigen matched CyTaCs using a CellTiter-Glo Luminescent Cell Viability Assay (Promega). […] After co-incubation, the supernatants were removed from the wells, the residual adherent target cells in the wells were then analyzed for cell viability using CellTiter-Glo® Luminescent Cell Viability Assay (Promega) according to manufacturer's instructions, as described below in Example 5.
(§3) CyTaC compounds of Formula (I) were evaluated for anti-cotinine immune cell mediated cell cytotoxicity in the above assay in one or more experimental runs and the results are shown in Table 6 below and FIGS. 2A, 2B, and 2C. […] The pEC50 value is the negative log of the EC50 value, wherein the EC50 value is half maximal effective concentration measured in molar (M). […]

LNCap (PSMA+) cells [2] = assay: Pro-inflammatory cytokine (IFN-gamma) production assay, PSMA-expressing target cells (LNCap), MSD ELISA; settings: Homo sapiens, EC50 in molar (M)
Protocol: (§4) Example 4: Immune Effector Cell (i.e., Anti-Cotinine CAR-T Cell, Anti-Cotinine CAR-NK92 Cell) Functional Study: Pro-Inflammatory Cytokine (e.g., IFN-Gamma) Production Assay
(§5) An ELISA assay was performed to quantify the level of IFN-gamma production by anti-cotinine CAR-T cells in the presence of CyTaC using a Meso Scale Discovery (MSD) T-Plex Multispot Cytokine Assay System. To perform the ELISA assay, each sample was obtained from the co-incubation of anti-cotinine immune effector cells (i.e. CAR-T, CAR-NK92), antigen-expressing target cells, and respective antigen-targeting CyTaCs. CAR-T and CAR-NK cells were prepared as described above in Examples 2 and 3, respectively.
Antigen-expressing target cells were pre-seeded at a density 1.5×10^4 cells per 100 μL of media in each well of a 96-well plate and grown overnight. For functional confirmation of immune effector cell (i.e. anti-cotinine CAR-T cells, anti-cotinine CAR-NK92 cells) activation, 100 nM or 10 nM of CyTaC was introduced into each well where the target cells were seeded to activate the anti-cotinine immune effector cell. For dose response determinations, 10 μM to 0.01 nM of CyTaC was added to the wells. The anti-cotinine immune effector cells (i.e. CAR-T, CAR-NK92) were next added to the wells at a fixed ratio (between 1:1 and 10:1) of effector cells to antigen-expressing After co-incubation, the supernatants were removed from the wells and analyzed to determine IFNγ release using a pro-inflammatory cytokine production assay (Meso Scale Diagnostics V-PLEX Human IFNγ Kit) according to manufacturer's protocol.
For dose response determinations, EC50 calculations were done using Graphpad Prism Software, specifically a nonlinear regression curve fit (Y=Bottom+(Top−Bottom)/(1+10^((Log EC50−X)*HillSlope))).
(§6) CyTaC compounds of Formula (I) were tested for anti-cotinine immune cell (i.e. CAR-T, CAR-NK92) activation as measured by IFN-Gamma production in the above assay in one or more experimental runs and the results are shown in Table 5. Potency of the compounds of Formula (I) is reported as a pEC50 value. The pEC50 value is the negative log of the EC50 value, wherein the EC50 value is half maximal effective concentration measured in molar (M). For compounds tested in more than one experimental run, the pEC50 value is reported as an average.

LNCap (PSMA+) cells [3] = assay: In vitro cell killing, Method 3: Live-Cell Analysis assay (Incucyte), PSMA-expressing target cells (LNCap); settings: Homo sapiens, 24 hour timepoint, 5:1 effector cells to target cells, EC50 in molar (M), read-out: Incucyte ® pEC50, LNCap (converted)
Protocol: as §1
Method 3: Live-Cell Analysis Assay (Incucyte®)
A Live-Cell Analysis assay (Incucyte®) was performed to assess in vitro cell killing of fluorescently-labelled antigen-expressing adherent target cells co-incubated with anti-cotinine immune effector cells (i.e. CAR-T cells, CAR-NK92 cells) and antigen matched CyTaCs. To perform the live-cell analysis assay, fluorescently-labelled antigen-expressing target cells were seeded at a density of 1.0×10^4 to 3×10^4 cells per 100 μL of media, and grown overnight in a 37° C. incubator. The next day, 50 μL of antigen-matched CyTaC solution was added at a concentration to result in 10 μM to 0.01 nM final assay concentration, followed by the addition of 50 μL anti-cotinine immune effector cells (i.e. CAR-T cells, CAR-NK92 cells) at a ratio of 5:1 effector cells to antigen-presenting target cells. The samples were placed in Live-Cell Analysis (Incucyte®) instrument, and the fluorescence of the wells was recorded every 2 hours for an additional 24 to 48 hours.
as §6, with “were evaluated” for “were tested”, “CAR-NK92) mediated cell cytotoxicity” for “CAR-NK92) activation”, “by fluorescence of viable cells” for “by IFN-Gamma production”, “Table 7 and FIG. 4.” for “Table 5.”, “pEC50 value at the 24 hour timepoint.” for “pEC50 value.”

[4] = tested on: αVβ6-expressing target cells; assay: In vitro cell killing, Method 1: CellTiter-Glo luminescent cell viability assay, αVβ6-expressing target cells; settings: anti-cotinine CAR-T, 24 hours, EC50 in molar (M), read-out: Cell Titler Glo pEC50 (CAR-T) (converted)
Protocol: as §1, §2, §3

[5] = tested on: αVβ6-expressing target cells; assay: Pro-inflammatory cytokine (IFN-gamma) production assay, αVβ6-expressing target cells; settings: EC50 in molar (M)
Protocol: as §4, §5
(§7) Antigen-expressing target cells were pre-seeded at a density 1.5×10^4 cells per 100 μL of media in each well of a 96-well plate and grown overnight. […] The anti-cotinine immune effector cells (i.e. CAR-T, CAR-NK92) were next added to the wells at a fixed ratio (between 1:1 and 10:1) of effector cells to antigen-expressing After co-incubation, the supernatants were removed from the wells and analyzed to determine IFNγ release using a pro-inflammatory cytokine production assay (Meso Scale Diagnostics V-PLEX Human IFNγ Kit) according to manufacturer's protocol. […]

[6] = tested on: FOLR-expressing target cells; assay: Pro-inflammatory cytokine (IFN-gamma) production assay, FOLR-expressing target cells; settings: EC50 in molar (M)
Protocol: as §4, §5, §7

[7] = tested on: FOLR-expressing target cells; assay: In vitro cell killing, Method 1: CellTiter-Glo luminescent cell viability assay, FOLR-expressing target cells; settings: 24 hours, EC50 in molar (M)
Protocol: as §1, §2, §3

[8] = tested on: FAP-expressing target cells; assay: Pro-inflammatory cytokine (IFN-gamma) production assay, FAP-expressing target cells; settings: EC50 in molar (M)
Protocol: as §4, §5, §7

[9] = tested on: FAP-expressing target cells; assay: In vitro cell killing, Method 1: CellTiter-Glo luminescent cell viability assay, FAP-expressing target cells; settings: 24 hours, EC50 in molar (M)
Protocol: as §1, §2, §3

[10] = anti-cotinine CAR-NK, read-out: Cell Titler Glo pEC50 (CAR-NK) (converted)
[11] = anti-cotinine CAR-T, read-out: Cell Titler Glo pEC50 (CAR-T) (converted)
[12] = CAR-T cell activation, PSMA-targeting CyTaCs, read-out: IFNγ Production pEC50, LNCap (converted)
[13] = anti-cotinine CAR-NK, read-out: IFNγ Production pEC50 (CAR-NK) (converted)
[14] = anti-cotinine CAR-T, read-out: IFNγ Production pEC50 (CAR-T) (converted)

SMILES: CN1C(=O)C[C@H](C(=O)NCCNC(=O)[C@H](Cc2ccccc2)NC(=O)[C@H](Cc2ccccc2)NC(=O)CCCCCCCNC(=O)CC[C@H](NC(=O)N[C@@H](CCC(=O)O)C(=O)O)C(=O)O)[C@H]1c1cccnc1 [compound 3]
EC50 (LNCap (PSMA+) cells [2]; [12]): 1e-07 M | EC50 (LNCap (PSMA+) cells [3]): 1.26e-08 M

SMILES: CN1C(=O)C[C@H](C(=O)NCCO[C@H]2CC[C@H](OCCCC(=O)N[C@H]3CC[C@H](C(=O)N4CCN(c5cccc([C@H](CC(=O)O)CN6CC[C@@H](CCc7ccc8c(n7)NCCC8)C6)c5)CC4)CC3)CC2)[C@H]1c1cccnc1 [compound 5]
EC50 [4]: 2.51e-10 M | EC50 [5, 13]: 5.01e-10 M | EC50 [5, 14]: 6.31e-10 M

SMILES: CN1C(=O)C[C@H](C(=O)NCCO[C@H]2CC[C@H](OCCCC(=O)N[C@H]3CC[C@H](C(=O)NCCNC(=O)CC[C@H](NC(=O)c4ccc(NCc5cnc6nc(N)[nH]c(=O)c6n5)cc4)C(=O)O)CC3)CC2)[C@H]1c1cccnc1 [compound 6]
EC50 [6, 13]: 2.51e-12 M | EC50 [6, 14]: 1.58e-08 M | EC50 [7, 10]: 1e-09 M | Cell Titler Glo pEC50 (CAR-T) ([7]; anti-cotinine CAR-T): Inactive

SMILES: CN(CCNC(=O)[C@H]1CC[C@H](NC(=O)CCCO[C@H]2CC[C@H](OCCNC(=O)[C@H]3CC[C@H](NC(=O)CCCO[C@H]4CC[C@H](OCCNC(=O)[C@H]5CC(=O)N(C)[C@@H]5c5cccnc5)CC4)CC3)CC2)CC1)c1ccc2nccc(C(=O)NCC(=O)N3CC(F)(F)C[C@H]3C#N)c2c1 [compound 7]
EC50 [8, 13]: 5.01e-11 M | EC50 [8, 14]: 1e-09 M | EC50 [9, 10]: 5.01e-10 M | EC50 [9, 11]: 2e-10 M

Further lines, with some results ahead:

EC50 (LNCap (PSMA+) cells [2]; [12]): 1.58e-10 M | EC50 (LNCap (PSMA+) cells [2]; anti-cotinine CAR-NK, PSMA-expressing target cells, read-out: IFNγ Production pEC50 (CAR-NK) (converted)): 1.58e-11 M | EC50 (LNCap (PSMA+) cells [2]; anti-cotinine CAR-T, PSMA-expressing target cells, read-out: IFNγ Production pEC50 (CAR-T) (converted)): 1.58e-10 M
SMILES: CN1C(=O)C[C@H](C(=O)NCCO[C@H]2CC[C@H](OCCCC(=O)N[C@H]3CC[C@H](C(=O)N[C@@H](Cc4ccc5ccccc5c4)C(=O)NCCCC[C@H](NC(=O)N[C@@H](CCC(=O)O)C(=O)O)C(=O)O)CC3)CC2)[C@H]1c1cccnc1 [compound 1]
EC50 [1, 10]: 3.98e-11 M | EC50 [1, 11]: 1.58e-10 M | EC50 (LNCap (PSMA+) cells [3]): 2.51e-10 M

EC50 (LNCap (PSMA+) cells [2]; [12]): 5.01e-08 M
SMILES: CN1C(=O)C[C@H](C(=O)NCCO[C@H]2CC[C@H](OCCCC(=O)N[C@H]3CC[C@H](C(=O)NCCNC(=O)[C@H](Cc4ccccc4)NC(=O)[C@H](Cc4ccccc4)NC(=O)CCCCCCCNC(=O)CC[C@H](NC(=O)N[C@@H](CCC(=O)O)C(=O)O)C(=O)O)CC3)CC2)[C@H]1c1cccnc1 [compound 2]
EC50 (LNCap (PSMA+) cells [3]): 3.98e-09 M

EC50 (LNCap (PSMA+) cells [2]; [12]): 5.01e-08 M
SMILES: CN1C(=O)C[C@H](C(=O)NCCO[C@H]2CC[C@H](OCCCC(=O)N[C@H]3CC[C@H](C(=O)NCCNC(=O)CC[C@H](NC(=O)N[C@@H](CCC(=O)O)C(=O)O)C(=O)O)CC3)CC2)[C@H]1c1cccnc1 [compound 4]
EC50 (LNCap (PSMA+) cells [3]): 1e-08 M
